# From patent publication US20240115654A1, “INTRAVENOUS ADMINISTRATION OF ENGINEERED ANTIMICROBIAL AMPHIPHILIC PEPTIDES” (priority 2021, published 2024)
# Peptide text beside a SMILES is read from it.
# Settings: Cohort 4: 0.5 mg/kg IV 2-hr infusion (N = 6)
# Description: All subjects who met eligibility criteria were confined to the clinical research unit from […] through Day 3. At admission, physical examination, vital signs, 12 lead ECG and weight were obtained, medical and medication history were updated if necessary, safety blood tests (hematology and chemistry), urinalysis, urine drug screen and an alcohol breath test were repeated and a urine pregnancy test was done for women of childbearing potential.
# At each dose level, there were 2 sentinel subjects, (1 active, 1 placebo), who were dosed at least 48 hours in advance of the other subjects in their respective group. Following review of safety data, including physical examination, vital signs, and review of adverse events from the first 2 subjects, enrolment in the cohort continued.
# A 12-lead ECG was performed on Day 1, within 60 minutes of infusion start (in triplicate), mid-way through the infusion, at the completion of the infusion, 30 minutes after completion of the infusion and at various timepoints following the end of the infusion.
# Vital signs were recorded within 60 minutes pre-dose, at the mid-point of the infusion and post dose vitals were assessed at completion of the infusion, 0.5, 1, 2, 3, 4, 6, 9, 12, 24 and 48 hours post dose, after at least 3 minutes of rest in supine position.
# Subjects returned to the study center 7 days after dosing, for the termination visit. A full physical examination, vital signs and weight were obtained, concomitant medications were updated if necessary, safety blood specimens (haematology and chemistry, PT and aPTT) and urine were collected for urinalysis and urine drug screening. A serum pregnancy test was done for women of childbearing potential and a 12-lead ECG was performed.
# In this study dose limiting toxicity (DLT) was defined as any drug related ≥Grade 3 AEs occurring despite optimal therapeutic interventions (which included but were not limited to allergic/hypersensitivity reactions, dermatological reactions/infusion site reactions, haematological toxicities such as neutropenia, thrombocytopenia and anaemia and clinical chemistry abnormalities) experienced up to Day 7 (Termination Visit).
# (§1) All subjects who received any amount of study drug were included in the safety analysis (Safety population).
# The study was a double blinded, randomized, placebo-controlled study. The placebo administered was 0.9% sodium chloride.
# On Day 1 (day of dosing), subjects were randomly assigned either peptide IV or Placebo IV. At each dose level, there were 2 sentinel subjects, (1 active, 1 placebo), who were dosed at least 48 hours in advance of the other subjects in their respective group. Following review of safety data, including physical examination, vital signs, and review of adverse events from the first 2 subjects, enrolment in the cohort continued. All subjects who met eligibility criteria were confined to the clinical research unit from Day −2 through Day 3. At admission, physical examination, vital signs, 12 lead ECG and weight were obtained, medical and medication history were updated if necessary, safety blood tests (hematology and chemistry), urinalysis, urine drug screen and an alcohol breath test were repeated and a urine pregnancy test was done for women of childbearing potential.
# as §1
smiles,measurement,value
CC(C)[C@H](NC(=O)[C@H](Cc1c[nH]c2ccccc12)NC(=O)[C@H](CCCNC(=N)N)NC(=O)[C@H](CCCNC(=N)N)NC(=O)[C@@H](NC(=O)[C@@H](NC(=O)[C@H](CCCNC(=N)N)NC(=O)[C@@H](NC(=O)[C@@H](NC(=O)[C@H](CCCNC(=N)N)NC(=O)[C@H](CCCNC(=N)N)NC(=O)[C@H](Cc1c[nH]c2ccccc12)NC(=O)[C@@H](NC(=O)[C@H](CCCNC(=N)N)NC(=O)[C@H](CCCNC(=N)N)NC(=O)[C@@H](NC(=O)[C@H](CCCNC(=N)N)NC(=O)[C@H](CCCNC(=N)N)NC(=O)[C@@H](NC(=O)[C@H](Cc1c[nH]c2ccccc12)NC(=O)[C@H](CCCNC(=N)N)NC(=O)[C@@H](N)CCCNC(=N)N)C(C)C)C(C)C)C(C)C)C(C)C)C(C)C)C(C)C)C(C)C)C(=O)N[C@@H](CCCNC(=N)N)C(=O)N[C@@H](CCCNC(=N)N)C(N)=O [SEQ ID NO: 1] (H-RRWVRRVRRVWRRVVRVVRRWVRR-NH2),"Number of Participants Reporting at least: One Dose-Limiting Toxicity, n (%)",0
same,"Number of Participants Reporting at least: One Related TEAE, n (%)",3 (50.0%)
same,"Number of Participants Reporting at least: One Serious TEAE, n (%)",0
same,"Number of Participants Reporting at least: One TEAE Leading to Study Drug Discontinuation, n (%)",0
same,"Number of Participants Reporting at least: One TEAE with Common Terminology Criteria for Adverse Events (CTCAE) Toxicity ≥ Grade 3, n (%)",0
same,"Number of Participants Reporting at least: One TEAE, n (%)",6 (100%)
same,"One Related TEAE, m",4
same,"One TEAE, m",15
same,"Participants With At Least 1 TEAE, n (%)",6 (100%)
same,"Participants With At Least 1 TEAE, occurrences m",15
same,"Participants With At Least 1 Treatment-Related TEAE, n (%)",3 (50.0%)
same,"Participants With At Least 1 Treatment-Related TEAE, occurrences m",4
same,"TEAE Severity Grade 1, m",12
same,"TEAE Severity Grade 1, n (%)",6 (100%)
same,"TEAE Severity Grade 2, m",3
same,"TEAE Severity Grade 2, n (%)",2 (33.3%)
same,"TEAE by system organ class: Blood and Lymphatic System Disorders, participants n (%)",0
same,"TEAE by system organ class: Gastrointestinal Disorders, occurrences m",2
same,"TEAE by system organ class: Gastrointestinal Disorders, participants n (%)",1 (16.7%)
same,"TEAE by system organ class: General Disorders and Administration Site Conditions, occurrences m",2
same,"TEAE by system organ class: General Disorders and Administration Site Conditions, participants n (%)",2 (33.3%)
same,"TEAE by system organ class: Infections and Infestations, occurrences m",1
same,"TEAE by system organ class: Infections and Infestations, participants n (%)",1 (16.7%)
same,"TEAE by system organ class: Injury, Poisoning, and Procedural Complications, occurrences m",4
same,"TEAE by system organ class: Injury, Poisoning, and Procedural Complications, participants n (%)",3 (50.0%)
same,"TEAE by system organ class: Musculoskeletal and Connective Tissue Disorders, occurrences m",2
same,"TEAE by system organ class: Musculoskeletal and Connective Tissue Disorders, participants n (%)",2 (33.3%)
same,"TEAE by system organ class: Nervous System Disorders, occurrences m",1
same,"TEAE by system organ class: Nervous System Disorders, participants n (%)",1 (16.7%)
same,"TEAE by system organ class: Respiratory, Thoracic, and Mediastinal disorders, participants n (%)",0
same,"TEAE by system organ class: Skin and Subcutaneous Tissue Disorders, occurrences m",3
same,"TEAE by system organ class: Skin and Subcutaneous Tissue Disorders, participants n (%)",2 (33.3%)
same,"TEAE by system organ class: Vascular Disorders, participants n (%)",0
same,"TEAE severity Grade 1, occurrences m",12
same,"TEAE severity Grade 1, participants n (%)",6 (100%)
same,"TEAE severity Grade 2, occurrences m",3
same,"TEAE severity Grade 2, participants n (%)",2 (33.3%)
same,"TEAE severity Grade 3, participants n (%)",0
same,"TEAE severity Grade 4, participants n (%)",0
same,"TEAE severity Grade 5, participants n (%)",0
same,"Treatment-related TEAE: Abdominal distension, occurrences m",1
same,"Treatment-related TEAE: Abdominal distension, participants n (%)",1 (16.7%)
same,"Treatment-related TEAE: Blood and Lymphatic System Disorders, participants n (%)",0
same,"Treatment-related TEAE: Constipation, participants n (%)",0
same,"Treatment-related TEAE: Diarrhea, occurrences m",1
same,"Treatment-related TEAE: Diarrhea, participants n (%)",1 (16.7%)
same,"Treatment-related TEAE: Dizziness, participants n (%)",0
same,"Treatment-related TEAE: Feeling hot, participants n (%)",0
same,"Treatment-related TEAE: Gastrointestinal Disorders, occurrences m",2
same,"Treatment-related TEAE: Gastrointestinal Disorders, participants n (%)",1 (16.7%)
same,"Treatment-related TEAE: General Disorders and Administration Site Conditions, occurrences m",2
same,"Treatment-related TEAE: General Disorders and Administration Site Conditions, participants n (%)",2 (33.3%)
same,"Treatment-related TEAE: Headache, participants n (%)",0
same,"Treatment-related TEAE: Infusion related reaction, participants n (%)",0
same,"Treatment-related TEAE: Infusion site discomfort, participants n (%)",0
same,"Treatment-related TEAE: Infusion site pain, participants n (%)",0
same,"Treatment-related TEAE: Infusion site reaction, occurrences m",1
same,"Treatment-related TEAE: Infusion site reaction, participants n (%)",1 (16.7%)
same,"Treatment-related TEAE: Infusion site swelling, participants n (%)",0
same,"Treatment-related TEAE: Injury, Poisoning, and Procedural Complications, participants n (%)",0
same,"Treatment-related TEAE: Macule, participants n (%)",0
same,"Treatment-related TEAE: Musculoskeletal and Connective Tissue Disorders, participants n (%)",0
same,"Treatment-related TEAE: Myalgia, participants n (%)",0
same,"Treatment-related TEAE: Nervous system disorders, participants n (%)",0
same,"Treatment-related TEAE: Oropharyngeal pain, participants n (%)",0
same,"Treatment-related TEAE: Orthostatic hypotension, participants n (%)",0
same,"Treatment-related TEAE: Phlebitis, participants n (%)",0
same,"Treatment-related TEAE: Respiratory, Thoracic, and Mediastinal disorders, participants n (%)",0
